What was measured:
[1] = tested on: LPS-induced TNF-α release in peripheral blood mononuclear cells (PBMCs); test: In vitro determination of PDE4 inhibitory activity in the peripheral blood mononuclear cells (PBMCs) assay; format: cell-based; conditions: PBMC; human PBMCs, LPS (3 ng/ml), 18 hours, TNF-α by ELISA
Description: The assay, which is based on the known inhibitory activity exerted by PDE4 inhibitors on the lipopolysaccharides (LPS)-induced tumour necrosis factor-alpha (TNF-α release in peripheral blood mononuclear cells (PBMCs), was performed according to the method described by A. Hatzelmann, et al., J. Pharmacol. Exp. Ther., 2001; 297:267-279 and by R. Draheim, et al., J. Pharmacol. Exp. Ther., 2004; 308:555-563.
Cryopreserved human PBMCs, (100 μl/well) were incubated in 96-well plates (10^5 cells/well), for 30 minutes, in the presence or absence (50 microl) of the test compounds whose concentrations ranged from 10^−12 M to 10^−6 M. Subsequently, LPS (3 ng/ml) was added.
After 18 hours incubation at 37° C. in a humidified incubator under an atmosphere of 95% air and 5% CO2, culture medium was collected and TNF-α measured by ELISA. The results are expressed as mean±95% confidence limits of the molar concentration of the test compound producing 50% inhibition of LPS-induced TNF-α release (IC50).
The effects of the tested compounds were calculated as percent inhibition of TNF-α release, assuming LPS-induced TNF-α production in the absence of inhibitor compound as 100% and basal TNF-α production of PBMCs in the absence of LPS as 0%.

PDE4 enzyme = test: In vitro determination of PDE4 inhibitory activity in the cell free assay; format: biochemical, human; conditions: U937 cell supernatant, 1.6 μM cAMP, 30° C. for 30 minutes, cAMP disappearance
Description: The U937 human monocytic cell line was used as source of PDE4 enzyme. Cells were cultured, harvested and supernatant fraction prepared essentially as described in T. J. Torphy, et al., J. Pharmacol. Exp. Ther., 1992; 263:1195-1205.
PDE4 activity was determined in cells supernatants by assaying cAMP disappearance from the incubation mixtures. 50 μl of cell supernatant were incubated at 30° C. for 30 minutes in a final volume of 200 μl in the presence of 1.6 μM cAMP with or without the test compound (50 μl).
The concentration of the test compounds ranged between 10^−12 M and 10^−6 M.
Reactions were stopped by heat inactivation (2.5 minutes at 100° C.), and residual cAMP was measured using an electrochemiluminescence (ECL)-based immunoassay.
The results are expressed as mean±95% confidence limits of the molar concentration of the test compound producing 50% inhibition of cAMP disappearance (IC50).
Percentage of inhibition of PDE4 activity was calculated, assuming cAMP disappearance in the absence of inhibitors as 100% and cAMP disappearance in heat inactivated samples as 0%.

| IC50 (PDE4 enzyme) | SMILES | IC50 [1] |
| --- | --- | --- |
| 81 nM | COc1ccc(N(Cc2ccc(F)cc2)Cc2c(Cl)cncc2Cl)cc1OC [Compound C1, (3,5-Dichloro-pyridin-4-ylmethyl)-(3,4-dimethoxy-phenyl)-(4-fluoro-benzyl)-amine] | 661 nM |
| 140 nM | COc1cccc(CN(Cc2c(Cl)cncc2Cl)c2ccc(OC)c(OC)c2)c1 [Compound C3, (3,5-Dichloro-pyridin-4-ylmethyl)-(3,4-dimethoxy-phenyl)-(3-methoxy-benzyl)-amine] | 184 nM |
| 60 nM | COc1ccc(N(Cc2ccc(S(C)(=O)=O)cc2)Cc2c(Cl)cncc2Cl)cc1OC [Compound C4, (3,5-Dichloro-pyridin-4-ylmethyl)-(3,4-dimethoxy-phenyl)-(4-methanesulfonyl-benzyl)-amine] | 198 nM |
|  | COc1ccc(N(Cc2ccco2)Cc2c(Cl)cncc2Cl)cc1OC [Compound C9, (3,5-Dichloro-pyridin-4-ylmethyl)-(3,4-dimethoxy-phenyl)-furan-2-ylmethyl-amine] | 47.8 nM |
| 38 nM | COc1ccc(N(Cc2ccc(S(N)(=O)=O)cc2)Cc2c(Cl)cncc2Cl)cc1OC [Compound C10, 4-{[(3,5-Dichloro-pyridin-4-ylmethyl)-(3,4-dimethoxy-phenyl)-amino]-methyl}-benzenesulfonamide] | 38 nM |
| 97.1 nM | COc1ccc(CN(Cc2c(Cl)cncc2Cl)c2ccc(OC)c(OC)c2)cc1 [Compound C13, (3,5-Dichloro-pyridin-4-ylmethyl)-(3,4-dimethoxy-phenyl)-(4-methoxy-benzyl)-amine] | 9.85 nM |
| 27 nM | CCOc1cc(N(Cc2ccc(OC)cc2)Cc2c(Cl)cncc2Cl)ccc1OC [Compound C14, (3,5-Dichloro-pyridin-4-ylmethyl)-(3-ethoxy-4-methoxy-phenyl)-(4-methoxy-benzyl)-amine] | 117 nM |
